This is an account of results in PubChem BioAssay (NCI).

Common to all, as to assay: NCI-60 cell line screen, 48 h
The test system of experiment [1] is HCT-15 colon.
Experiment [2] concerns K-562 leukemia.
Experiment [3] concerns HCT-116 colon.
The subject of experiment [4] is OVCAR-5 ovarian.
In experiment [5] the test system is RPMI-8226 leukemia.
Experiment [6] concerns SK-OV-3 ovarian.
For experiment [7], the system named is HT29 colon.
Experiment [8] deals with OVCAR-4 ovarian.
Experiment [9] has as its system NCI/ADR-RES ovarian.
In experiment [10] the test system is DU-145 prostate.

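Compound exposure: 48 hours, 5 concentrations, 96-well plates. The concentration for full growth arrest is given as TGI.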

As for `C[N+](C)(C)CCN[N+]1(C)CCCc2ccccc21` (stereo not given), the TGI is more than 100 µM in experiment [1]; more than 100 µM in experiment [2]; more than 100 µM in [3]; more than 100 µM in experiment [4]; 92.9 µM in [5]; more than 100 µM in experiment [6]. The TGI in [7], in experiment [8], in [9] and in experiment [10] was more than 100 µM throughout.

As for `CC1(C=O)CCC23COC4(CCC5C6(C)CCC(OC7OCC(OC8OC(CO)C(O)C(OC9OC(CO)C(O)C(O)C9O)C8OC8OCC(O)C(O)C8O)C(O)C7OC7OC(CO)C(O)C(O)C7O)C(C)(C)C6CCC5(C)C4(C)CC2O)C3C1` (stereo not given), the TGI in [1] is 2.86 µM; in experiment [2], more than 100 µM; in experiment [3], 2.74 µM; in experiment [4] it was 2.55 µM; in [5], 4.45 µM; in experiment [6], 2.57 µM. The TGI in experiment [7] was 2.07 µM; in [8] it was 2.38 µM; in experiment [9] it was 1.05 µM; in experiment [10] it was 2.77 µM.

Consider `c1ccc([P+](c2ccccc2)(c2ccccc2)c2ccc(-c3ccc([P+](c4ccccc4)(c4ccccc4)c4ccccc4)cc3)cc2)cc1`, for which the TGI in experiment [1] was more than 100 µM; in experiment [2], more than 100 µM; in [3], 58 µM; in experiment [4], more than 100 µM; in experiment [5] it was more than 100 µM; in experiment [6], more than 100 µM. Besides, the TGI in experiment [7] was 63.5 µM; in experiment [8], 94.8 µM; in [9], more than 100 µM; in experiment [10], more than 100 µM.

Turning to `Cc1c2cc[n+](C)cc2c(C)c2c1oc1ccccc12`, the TGI was more than 100 µM in experiment [1]; 34.9 µM in [2]; 24.5 µM in [3]; 64 µM in experiment [4]; 30.1 µM in experiment [5]; 57.8 µM in experiment [6]. Further, the TGI in experiment [7] was more than 77.1 µM; in [8], 21.8 µM; in [9], more than 100 µM; in experiment [10] it was 64.7 µM.

Take `CCOP(=O)(OCC)C(Nc1cccc(F)c1)c1ccc(N(C)C)cc1` (stereo not given): the TGI in [1], in [2], in experiment [3], in [4], in experiment [5] and in experiment [6] was more than 100 µM in each case. Further, the TGI in experiment [7], in [8], in experiment [9] and in experiment [10] was more than 100 µM throughout.
